Results as given in paper PMC9585585, “Discovery of Small-Molecule Allosteric Inhibitors of PfATC as Antimalarials” (Journal of the American Chemical Society, 2022).
Where “and” joins values, the source holds several entries; their conditions need not be identical. Equal entries are not always repeated. Where two headings read alike, the source gives them in different places.

Legend:
P. falciparum 3D7 = experiment: Growth-inhibition assay of P. falciparum (SYBR Green I); format: cell-based, Plasmodium falciparum; conditions: P. falciparum 3D7, 96 h, read-out: EC50 against blood stage 3D7 cultures
Protocol: 488Cell culture and growth-inhibition assay of P. falciparum. P. falciparum 3D7 parasites
489(Wellcome Trust Dundee) were maintained in continuous culture at 37 °C and an atmosphere
490consisting of 90% N 2, 5% O2, and 5% CO2 as described previously 30 with modifications.31
491Parasites were maintained in 25 mM 4-(2-hydroxyethyl)-1-piperazineethanesulfonic acid (HEPES)
492and 11.9 mM sodium bicarbonate buffered RPMI 1640 medium supplemented with D-glucose
493(11 mM), hypoxanthine, AlbuMAX-I (0.5% w/v), and 10 µg/mL gentamicin. 0+ blood was
494provided by “Hospital Novo Atibaia” (Brazil) in agreement with the ethics committee at ICB-USP.
495Compounds were tested for their inhibitory effect against P. falciparum 3D7 conducting SYBR
496Green I (Invitrogen) drug assays as reported. 32, 33 Briefly, two-fold serial dilutions of compounds
497were prepared in 96-well plates starting from 100 and 20 µM in technical triplicate and incubated
498for 96 h under normal growth conditions using an initial parasitemia of 0.5% and a hematocrit of
4992% in a volume of 100 µL per well. Parasite proliferation was measured by quantifying DNA via
500SYBR Green I emitted fluorescence in the wells after addition of 100 µL lysis buffer supplemented
501with SYBR Green I (0.02% v/v) and incubation for 1 h at room temperature in the dark.
502Fluorescence was quantified using a CLARIOstar plate reader (BMG Labtech, Germany) at
503excitation and emission wavelength bands of 485 (± 9) and 530 (± 12) nm, respectively. Focal and
504gain adjustment was performed using the negative controls (highest expected fluorescence signal).
505Data was acquired via the CLARIOstar (V5.20) and MARS software, manually normalized, and
506plotted using the nonlinear regression curve fit implemented in GraphPad Prism as described below
507in more detail. Non-treated parasites, highest solvent concentration on parasites, and highest drug
508concentration in medium were used as controls for maximal growth, solvent control, and native
509drug fluorescence, respectively.
511Nonlinear regression fit and analysis of dose-response drug assays. Nonlinear regression as
512implemented in GraphPad Prism 8.4.3 (log(inhibitor) vs. response – Variable slope (four
513parameters)) was used to fit the measured data to interpolate the IC 50 value from the curve. No
514specific model was applied. Data was pre-processed by min-max-scaling according to the
517where y is the fluorescence signal in each well, y minimum the background fluorescence, and ymaximum
518the highest measured fluorescence signal in the untreated wells. Drug concentrations (in µM) were
519transformed to the log(10)of the values. Means of each independent experiment were plotted as
520individual values, and the SD of the mean from the means shown as error bars. The test for
521homoscedasticity was performed to confirm if no weighting of values was appropriate.

PfATC [1] = biological target: T1, PfATC (Plasmodium falciparum, UniProt A0A5K1K910); experiment: Differential scanning fluorimetry (DSF); format: binding; conditions: PfATC 5 µM, read-out: ΔTM of PfATC (thermal stabilization)
T1 sequence (A0A5K1K910 entry or part of it): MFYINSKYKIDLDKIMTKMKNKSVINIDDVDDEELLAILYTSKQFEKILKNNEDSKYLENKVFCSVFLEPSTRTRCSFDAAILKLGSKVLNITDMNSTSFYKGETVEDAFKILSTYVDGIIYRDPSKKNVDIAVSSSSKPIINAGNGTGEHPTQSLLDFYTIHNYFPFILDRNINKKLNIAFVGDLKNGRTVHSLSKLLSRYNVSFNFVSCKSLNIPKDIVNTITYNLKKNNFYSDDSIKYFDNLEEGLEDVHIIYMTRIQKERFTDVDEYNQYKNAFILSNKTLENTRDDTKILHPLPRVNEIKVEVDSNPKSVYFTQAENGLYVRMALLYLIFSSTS
Text: (§1) 464Data collection, processing and refinement. All the diffraction data sets were collected using
(§2) 465synchrotron radiation wavelength 1.033200 Å at DESY beamline P11. The data collected for
(§3) 466PfATC crystals grown in presence of fragments and compounds were processed using XDSAPP 25
(§4) 467and Aimless 26, and the structures were solved and initially refined using the DIMPLE pipeline
(§5) 468within CCP4 suite 26 with coordinates of the unliganded PfATC (5ILQ) as a starting model. The
(§6) 469final refinement included manual rebuilding in coot 27 and Refmac5 28. The resulting crystal
(§7) 470structures were deposited in PDB 29. Data collection and processing statistics are show in Table
(§8) 472Differential Scanning Fluorimetry (DSF). The purified PfATC was incubate with 5000 × Sypro
(§9) 473Orange (Invitrogen) and dilution it to 1:400 stock of dye in assay buffer (50 mM Tris-HCl pH =8.0
(§10) 474and 300 mM NaCl). Each reaction consisted of 2 µL compound (10 mM stock in 100% DMSO), 5
(§11) 475µL PfATC-Sypro orange mixture and 43 µL assay buffer. Final protein assay concentration was
(§12) 4765µM, final DMSO concentration war […]. After incubation for 20 min at 20 ℃, the samples
(§13) 477were hated from 25℃ to 95℃ at a rate of 0.5 ℃ min -1. The inflection points of the melting curves
(§14) 478were determined using BioRad CSV 96 control software and processed & plotted by GraphPad.
(§15) 479Microscale Thermophoresis (MST). […]

PfATC [2] = biological target: T1, PfATC; experiment: Microscale thermophoresis (MST); format: binding; conditions: n = 3
Text: as §1, §2, §3, §4, §5, §6, §7, §8, §9, §10, §11, §12, §13, §14, §15

HepG2 cells = experiment: Cytotoxicity on cultured human HepG2 cells; format: cell-based; conditions: at a concentration of 100 μM
[3] = Insolubility interpreted from deviation of the MST curve; format: physicochemical; conditions: pH 8, aqueous with cosolvent or surfactant or cyclodextrin, kinetic from dmso stock, MST buffer, read-out: concentration in excess of which the compound is insoluble
Protocol: We also modified the amino group and generated a new scaffold, suspecting that varying the R1, R2, and R3 groups would generate a series of compounds with optimized binding and improved inhibition (BDAs, Supporting Information Table 1). We evaluated the BDA series in an in vitro activity assay against malarial and human ATC (Figure 3A, Supporting Information Table 1). […] Significant deviations from the sigmoidal distribution of the MST curve are present at concentrations higher than 10 μM, which we have interpreted as indicative of BDA-04 insolubility at concentration in excess of 10 μM. To characterize the mechanism of inhibition by BDAs, enzyme activity assays were performed using BDA-04 as an exemplar (Figure 3F,G).
as §1, §2, §3, §4, §5
469final refinement included manual rebuilding in coot 27 and Refmac5 28. The resulting crystal […]
478were determined using BioRad CSV 96 control software and processed & plotted by GraphPad. […]

| EC50 (P. falciparum 3D7) | ΔTm (PfATC [1]) | Kd (PfATC [2]) | EC50 (P. falciparum 3D7; Plasmodium falciparum, 3D7, 96 h) | solubility at 10 min [3] | SMILES | cytotoxic effect on cultured human HepG2 cells (HepG2 cells) |
| --- | --- | --- | --- | --- | --- | --- |
| 3400 nM and 3370 nM |  |  |  |  | CC(C)(C)OC(=O)Nc1sc(-c2ccccc2)cc1C(=O)NCCc1ccc(O)cc1 [BDA-11] |  |
| 2000 nM and 2030 nM |  |  |  |  | COc1cccc(CCNC(=O)c2cc(-c3ccccc3)sc2NC(=O)OC(C)(C)C)c1 [BDA-24] |  |
| 2430 nM | 22.8 °C | 66.3 nM | 2400 nM | > 10 µM | CC(C)(C)OC(=O)Nc1sc(-c2ccccc2)cc1C(=O)NCCc1ccccc1 [BDA-04] | no cytotoxic effect |

| SMILES | EC50 (P. falciparum 3D7) | ΔTm (PfATC [1]) | Kd (PfATC [2]) | EC50 (P. falciparum 3D7; Plasmodium falciparum, 3D7, 96 h) | solubility at 10 min [3] | cytotoxic effect on cultured human HepG2 cells (HepG2 cells) |
| --- | --- | --- | --- | --- | --- | --- |
| CC(C)(C)OC(=O)Nc1sc(-c2ccccc2)cc1C(=O)NCCO [BDA-14] | 42500 nM |  |  |  |  |  |
